In brackets after ≈: the same amount, converted by molar mass. Like-named read-outs stand apart in the source and are kept apart here.
What was measured:
[1] = system: E. coli DH5α; assay: Disc diffusion assay to assess antimicrobial activities (inhibition of bacterial growth); type: cell-based; conditions: read-out: Minimal inhibitory concentration
Method: The antibacterial activities of test compounds were evaluated using the disc diffusion method (Kavanagh, Academic Press, Inc., New York, 1963, 125-140; Pomares et al, J Bacteriol. 2008, 30 190, 4328-4334). Briefly, filter-paper discs impregnated with 10 μl of two-fold serial dilutions of test compounds were placed onto LB solid medium Petri dishes. Then, aliquots (50 μl) of an E. coli DH5α culture in stationary phase were mixed with 3 ml of top agar (0.7% agar) and overlaid onto the plates. After overnight incubation at 37° C., the plates were examined for different degrees of inhibition. The antibacterial efficacy of a test compound was estimated by the Minimum Inhibitory Concentration (MIC) assay that determines the lowest concentration inhibiting visible growth of bacteria. Each test was performed in duplicate vs. the reference compound, doxycycline (“DOX”).

[2] = system: dopaminergic midbrain neurons (TH+); assay: Neuroprotection of TH+ dopaminergic neurons in primary mouse midbrain cultures (spontaneous oxidative stress); type: cell-based; conditions: Neuron, 168 h, cultured for 7 days, estimated graphically, read-out: EC50 (concentration protecting 50% of TH+ neurons)
Method: The inventors have further shown that compounds 1-H and 1-Me exert robust and concentration-dependent neuroprotective effects in a cell model in which the dopaminergic midbrain neurons, vulnerable in Parkinson's disease, degenerate further to a spontaneous oxidative stress of low intensity resulting from the presence of catalytic iron in the culture medium (Guerreiro et al, J Neurochem. 2009; 109(4):1118-28; Rousseau et al, Mol Pharmacol. 2013; 84(6):888-98).
Cultures were carried out using embryos of Swiss mice (Janvier LABS, Le Genest St. Isles, 30 France), collected at 13.5 days of gestation. The experimental procedures were performed in accordance with Directive 2010/63/EU of the Council of the European Union, using a protocol validated by the Charles Darwin ethics committee no. 5. The protocol is based on techniques reported previously (Rousseau et al, 2013, supra; Lavaur et al, J Neurochem. 2017; 142(1):14-28), using an additional step of trypsinization with an EDTA (2mM)-trypsin (0.05%) solution to facilitate the dissociation of brain tissue. The cells in suspension are distributed in 48-well multi-well dishes (Nunc; ThermoFisher Scientific), at a density of 50-80. 10^3 cells/cm^2, using Dulbecco's Modified Eagle's Medium/Nutrient Mixture F-12 Ham (Sigma-Aldrich), supplemented with 10% fetal calf serum. After 2 hours, the cultures are washed completely and placed in the presence of the same medium containing only 20 μg/ml of bovine insulin. The cultures are also treated with cytarabine (1.5 μM) on the first day in vitro and on the following day to reduce the number of glial cells in the cultures.
These cultures contain between 1 to 2% of dopaminergic neurons. […] Assessment of the number of dopaminergic neurons is done by counting TH^+ neurons with a Nikon Eclipse Ti-U inverted microscope.
The reference molecule used to prevent the loss of dopaminergic neurons is apotransferrin (APO; Sigma Aldrich; 100 μg/ml), a protein that chelates ferric iron in culture medium.

[3] = target: human recombinant monomeric α-Synuclein (Homo sapiens, UniProt P37840); assay: Thioflavin-T fluorescence assay of α-Synuclein amyloid aggregation; type: biochemical; conditions: test compound 100 μM; 70 μM α-Synuclein; after 144 hours of shaking; percent of optimal response without tetracycline
Method: Aggregation studies were performed at 37° C. on samples containing 70 μM human recombinant monomeric α-Synuclein that were submitted to constant orbital agitation (Thermomixer Comfort, Eppendorf) at 600 rpm in the absence or in the presence of test compounds, at 100 μM. The formation of α-Synuclein aggregated species was monitored using the fluorescence probe Thioflavin-T (LeVine, Methods Enzymol. 1999, 309, 274-284; González-Lizárraga, et al. Sci Rep. 2017, 7, 41755), at a concentration of 25 μM. Changes in emission fluorescence were measured after 144 hrs of continuous shaking, at an excitation wavelength of 450 nm using a Horiba FluoroMax 4 spectrometer.

[4] = E. coli DH5α, disc diffusion, overnight incubation at 37° C., assayed twice
[5] = Escherichia coli, E. coli DH5α, disc diffusion, overnight incubation at 37° C., assayed twice

| Compound | MIC [1, 4] [µM] | MIC ([1]; Escherichia coli) [µM] | EC50 [2] [nM] | residual Thioflavin-T fluorescence level [3] [%] | MIC [1, 5] [µM] |
| --- | --- | --- | --- | --- | --- |
| NC(=O)C1=C(O)C[C@@H]2C[C@H]3C(=C(O)C2C1=O)C(=O)c1c(O)ccc(Cl)c1[C@H]3O (stereo partly drawn) [1-H, 7-chloro-3,6,10,12-tetrahydroxy-1,11-dioxo-1,4,4α,5,5α,6,11,12α-octahydrotetracene-2-carboxamide] | >2000 | > 2000 | 810 | 1.5 |  |
| C[C@@]1(O)c2c(Cl)ccc(O)c2C(=O)C2=C(O)C3C(=O)C(C(N)=O)=C(O)C[C@@H]3C[C@@H]21 (stereo partly drawn) [1-Me, 7-chloro-3,6,10,12-tetrahydroxy-6-methyl-1,11-dioxo-1,4,4α,5,5α, 6,11,12α-octahydrotetracene-2-carboxamide] | >2000 |  | 2010 | 13.5 | > 2000 |
| C[C@H]1c2cccc(O)c2C(=O)C2=C(O)[C@]3(O)C(=O)C(C(N)=O)=C(O)[C@@H](N(C)C)[C@@H]3[C@@H](O)[C@@H]21 [DOX, doxycycline, reference compound] |  |  | 5200 | 21.1 | 62.5 (≈ 27.8 µg/mL) |

From patent publication US20230390309A1, “TETRACYCLINE DERIVATIVES FOR TREATING NEURODEGENERATIVE OR NEUROINFLAMMATORY DISEASES” (INSTITUT DU CERVEAU ET DE LA MOELLE EPINIERE, priority 2020, published 2023)
